*1 amine or outer side, *2 acyl side, *3 side chain or, on linkers, in order; H or OH if unused. Where a SMILES comes first, the peptide text is derived from it. Bridges are numbered along the chain shown (N, C = ends). [ ]: non-standard residue; d: D form. The star is where a group is joined. X1 = COc1cc2cc(c1Cl)N(C)C(=O)C[C@H](OC(=O)[C@H](C)N(C)C(=O)CCSSC(C)CCC(=O)*)[C@]1(C)O[C@H]1[C@H](C)[C@@H]1C[C@@](O)(NC(=O)O1)[C@H](OC)/C=C/C=C(\C)C2; 1Nal = N[C@@H](Cc1cccc2ccccc12)C(=O)O; TBMB = c1c(C[*:1])cc(C[*:3])cc1C[*:2]; Tle = CC(C)(C)[C@H](N)C(=O)O; βAla = NCCC(=O)O; Sar = CNCC(=O)O
Experiments:
NCI-H292 xenograft = test: In vivo efficacy of BT1718 in NCI-H292 xenograft; set-up: species or system Mus Musculus; key to Best response at 10 mg/kg: CR complete response; PR partial response
Experimental: The objective of this study was to evaluate the in vivo anti-tumor efficacy of BT1718in treatment of HT1080, NCI-H292, NCI-H1975, MDA-MB-231, HCC1806, RPMI2650, HCT-15, HT-29 and SNU-16 xenograft in BALB/c nude mice.
The HT1080, NCI-H292, NCI-H1975, MDA-MB-231, HCC1806, RPMI2650, HCT-15, HT-29 and SNU-16 tumor cells were maintained in vitro as a monolayer culture in medium supplemented with 10% heat inactivated fetal bovine serum at 37° C. in an […]. The tumor cells will be routinely subcultured twice weekly by trypsin-EDTA treatment. The cells growing in an exponential growth phase will be harvested and counted for tumor inoculation.
Mouse was inoculated subcutaneously at the right flank with tumor cells for tumor development. The animals were randomized and treatment was started when the average tumor reaches certain volume for the efficacy study, the inoculating cell amounts and starting tumor size were shown as below in Table 9. The test article administration and the animal numbers in each group were shown in the experimental design in Table 10.
(§1) All the procedures related to animal handling, care and the treatment in the study were performed according to the guidelines of the Association for Assessment and Accreditation of Laboratory Animal Care (AAALAC). At the time of routine monitoring, the animals were daily checked for any effects of tumor growth and treatments on normal behavior such as mobility, food and water consumption (by looking only), body weight gain/loss (body weights were measured every day), eye/hair matting and any other abnormal effect as stated in the protocol. Death and observed clinical signs were recorded on the basis of the numbers of animals within each subset.
(§2) The major endpoint was to see if the tumor growth could be delayed or mice could be cured. Tumor size was measured three times weekly in two dimensions using a caliper, and the volume was expressed in mm^3 using the formula: V=0.5 a×b^2 where a and b are the long and short diameters of the tumor, respectively. The tumor size was then used for calculations of T/C value. The T/C value (in percent) is an indication of antitumor effectiveness; T and C are the mean volumes of the treated and control groups, respectively, on a given day.
(§3) TGI was calculated for each group using the formula: TGI (%)=[1−(Ti−T0)/(Vi−V0)]×100; Ti is the average tumor volume of a treatment group on a given day, T0 is the average tumor volume of the treatment group on the day of treatment start, Vi is the average tumor volume of the vehicle control group on the same day with Ti, and V0 is the average tumor volume of the vehicle group on the day of treatment start.
Summary statistics, including mean and the standard error of the mean (SEM), are provided for the tumor volume of each group at each time point.
Statistical analysis of difference in tumor volume among the groups was conducted on the data obtained at the best therapeutic time point after the final dose.
A one-way ANOVA was performed to compare tumor volume among groups, and when a significant F-statistics (a ratio of treatment variance to the error variance) was obtained, comparisons between groups were carried out with Games-Howell test. All data were analyzed using Prism. P<0.05 was considered to be statistically significant.

LU-01-0486 PDX model = type: in vivo, Mus Musculus; settings: 3 or 10 mg/kg
Experimental: The objective of this study was to evaluate the in vivo anti-tumor efficacy of BT1718 in the treatment of MT1-MMP low-expressing LU-01-0486 PDX model in female Balb/C nude mice
Each mouse was inoculated subcutaneously at the right flank with LU-01-0486 of tumor fragment (30 mm^3) for tumor development. The treatments was started when the average tumor volume reaches 164 mm^3.
as §1, with “following” for “according to”, “guidance” for “guidelines”, “twice weekly),” for “every day),”
as §2, with “two” for “three”, “The T/C value (in percent) is an indication of antitumor effectiveness; T and C are the mean volumes of the treated and control groups, respectively, on a given day.” left out
as §3, with “start. […]” for “start.”
A one-way ANOVA was performed to compare tumor volume among groups, and when a significant F-statistics (a ratio of treatment variance to the error variance) was obtained, comparisons between groups were carried out with Games-Howell test. All data were analyzed using Prism. […]

For `COc1cc2cc(c1Cl)N(C)C(=O)C[C@H](OC(=O)[C@H](C)N(C)C(=O)CCSSC(C)CCC(=O)NCCC(=O)N(C)CC(=O)N(C)CC(=O)N(C)CC(=O)N(C)CC(=O)N(C)CC(=O)N(C)CC(=O)N(C)CC(=O)N(C)CC(=O)N(C)CC(=O)N(C)CC(=O)N[C@@H](C)C(=O)N[C@H]1CSCc3cc4cc(c3)CSC[C@H](NC(=O)[C@@H](C)NC(=O)[C@H](Cc3cccc5ccccc35)NC(=O)[C@H](CCC(=O)O)NC(=O)[C@H](CC(N)=O)NC(=O)[C@@H](C)NC1=O)C(=O)N[C@@H](CCC(=O)O)C(=O)N[C@@H](CC(=O)O)C(=O)N[C@@H](Cc1ccccc1)C(=O)N[C@@H](Cc1ccc(O)cc1)C(=O)N[C@@H](CC(=O)O)C(=O)N[C@@H](C(C)(C)C)C(=O)N[C@H](C(N)=O)CSC4)[C@]1(C)O[C@H]1[C@H](C)[C@@H]1C[C@@](O)(NC(=O)O1)[C@H](OC)/C=C/C=C(\C)C2` (some centres unmarked) [BT1718] ({X1-βAla}-[Sar][Sar][Sar][Sar][Sar][Sar][Sar][Sar][Sar][Sar]AC[dA]NE[1Nal][dA]CEDFYD[Tle]C-NH2; linker 12-18-25 via TBMB (inferred)), the “tumors that failed to respond on resumed treatment” value (NCI-H292 xenograft; 10 mg/kg biw re-treatment) was 1/3, the “tumors with lack of clear tumor growth on re-treatment” value (NCI-H292 xenograft; 10 mg/kg biw re-treatment) was 2/3 and the “Body Weight” value (NCI-H292 xenograft; 1 mpk biw, day 0) was 22.8 ± 0.7 g. For the same compound, the “Tumor Volume” value (NCI-H292 xenograft; 1 mpk biw, day 0) was 153 ± 9 mm^3, the “Body Weight” value (NCI-H292 xenograft; 1 mpk biw, day 2) was 22.9 ± 0.3 g and the “Tumor Volume” value (NCI-H292 xenograft; 1 mpk biw, day 2) was 215 ± 25 mm^3. The “Body Weight” value (NCI-H292 xenograft; 1 mpk biw, day 4) was 23.4 ± 0.5 g, the “Tumor Volume” value (NCI-H292 xenograft; 1 mpk biw, day 4) was 326 ± 49 mm^3 and the “Body Weight” value (NCI-H292 xenograft; 1 mpk biw, day 7) was 23.6 ± 0.6 g. The “Tumor Volume” value (NCI-H292 xenograft; 1 mpk biw, day 7) was 514 ± 54 mm^3, the “Body Weight” value (NCI-H292 xenograft; 1 mpk biw, day 9) was 23.7 ± 0.7 g and the “Tumor Volume” value (NCI-H292 xenograft; 1 mpk biw, day 9) was 669 ± 53 mm^3. For the same compound, the “Body Weight” value (NCI-H292 xenograft; 1 mpk biw, day 11) was 23.4 ± 0.7 g, the “Tumor Volume” value (NCI-H292 xenograft; 1 mpk biw, day 11) was 978 ± 97 mm^3 and the “Body Weight” value (NCI-H292 xenograft; 1 mpk biw, day 14) was 23.5 ± 1.0 g. The “TGI (%)” value (NCI-H292 xenograft; 1 mpk biw, day 14) was 20.7%, the “Tumor Volume” value (NCI-H292 xenograft; 1 mpk biw, day 14) was 1174 ± 98 mm^3 and the “Tumor Volume(mm^3)” value (NCI-H292 xenograft; 1 mpk biw, day 14) was 1174 ± 98 mm^3. For the same compound, the “Body Weight” value (NCI-H292 xenograft; 3 mpk biw, day 0) was 22.7 ± 0.5 g, the “Tumor Volume” value (NCI-H292 xenograft; 3 mpk biw, day 0) was 151 ± 15 mm^3 and the “Body Weight” value (NCI-H292 xenograft; 3 mpk biw, day 2) was 23.5 ± 0.4 g. For the same compound, the “Tumor Volume” value (NCI-H292 xenograft; 3 mpk biw, day 2) was 226 ± 22 mm^3, the “Body Weight” value (NCI-H292 xenograft; 3 mpk biw, day 4) was 23.2 ± 0.7 g and the “Tumor Volume” value (NCI-H292 xenograft; 3 mpk biw, day 4) was 334 ± 65 mm^3. For the same compound, the “Body Weight” value (NCI-H292 xenograft; 3 mpk biw, day 7) was 23.4 ± 0.8 g, the “Tumor Volume” value (NCI-H292 xenograft; 3 mpk biw, day 7) was 443 ± 70 mm^3 and the “Body Weight” value (NCI-H292 xenograft; 3 mpk biw, day 9) was 22.9 ± 0.9 g. For the same compound, the “Tumor Volume” value (NCI-H292 xenograft; 3 mpk biw, day 9) was 591 ± 90 mm^3, the “Body Weight” value (NCI-H292 xenograft; 3 mpk biw, day 11) was 22.6 ± 1.0 g and the “Tumor Volume” value (NCI-H292 xenograft; 3 mpk biw, day 11) was 781 ± 178 mm^3. The “Body Weight” value (NCI-H292 xenograft; 3 mpk biw, day 14) was 22.0 ± 1.2 g, the “TGI (%)” value (NCI-H292 xenograft; 3 mpk biw, day 14) was 40.3% and the “Tumor Volume” value (NCI-H292 xenograft; 3 mpk biw, day 14) was 920 ± 258 mm^3. For the same compound, the “Tumor Volume(mm^3)” value (NCI-H292 xenograft; 3 mpk biw, day 14) was 920 ± 258 mm^3, the “Body Weight” value (NCI-H292 xenograft; 10 mpk biw, day 0) was 22.8 ± 0.4 g and the “Tumor Volume” value (NCI-H292 xenograft; 10 mpk biw, day 0) was 153 ± 6 mm^3. For the same compound, the “Body Weight” value (NCI-H292 xenograft; 10 mpk biw, day 2) was 22.1 ± 0.3 g, the “Tumor Volume” value (NCI-H292 xenograft; 10 mpk biw, day 2) was 152 ± 8 mm^3 and the “Body Weight” value (NCI-H292 xenograft; 10 mpk biw, day 4) was 21.7 ± 0.3 g. For the same compound, the “Tumor Volume” value (NCI-H292 xenograft; 10 mpk biw, day 4) was 151 ± 32 mm^3, the “Body Weight” value (NCI-H292 xenograft; 10 mpk biw, day 7) was 22.4 ± 0.3 g and the “Tumor Volume” value (NCI-H292 xenograft; 10 mpk biw, day 7) was 159 ± 49 mm^3. For the same compound, the “Body Weight” value (NCI-H292 xenograft; 10 mpk biw, day 9) was 21.8 ± 0.2 g, the “Tumor Volume” value (NCI-H292 xenograft; 10 mpk biw, day 9) was 158 ± 49 mm^3 and the “Body Weight” value (NCI-H292 xenograft; 10 mpk biw, day 11) was 21.8 ± 0.2 g. The “Tumor Volume” value (NCI-H292 xenograft; 10 mpk biw, day 11) was 143 ± 52 mm^3, the “Body Weight” value (NCI-H292 xenograft; 10 mpk biw, day 14) was 22.5 ± 0.4 g and the “TGI (%)” value (NCI-H292 xenograft; 10 mpk biw, day 14) was 101.6%. For the same compound, the “Tumor Volume” value (NCI-H292 xenograft; 10 mpk biw, day 14) was 133 ± 44 mm^3, the “Tumor Volume(mm^3)” value (NCI-H292 xenograft; 10 mpk biw, day 14) was 133 ± 44 mm^3 and the “Best response at 10 mg/kg” value (NCI-H292 xenograft; NCI-H292, 10 mg/kg) was “CR”. For the same compound, the “Minimally Effective Dose IV BIW” value (NCI-H292 xenograft; NCI-H292, dose leading to tumor-stasis) was less than 10 mg/kg, the “dosing suspension until re-growth to 150 mm3” value (NCI-H292 xenograft; after 10 mg/kg biw) was 2-3 weeks and the “tumor volume after regression” value (NCI-H292 xenograft; after 4 weeks 10 mg/kg biw) was “below 50 mm3”. For the same compound, the body weight effect (LU-01-0486 PDX model) was “no significant effect on body weight” and the tumor growth (LU-01-0486 PDX model) was “limited inhibition of tumor growth”.

From patent US10441663B2, “Methods for treating cancer” (Bicycle Therapeutics Limited, priority 2016, dated 2019)
